From patent US4490393A, “Thiazolylurea derivatives, a process for preparing same and a pharmaceutical composition containing same” (Mitsui Toatsu Kagaki Kabushiki Kaisha, priority 1981, dated 1984)
Structures can show the parent of a compound that is named as a salt.

Columns and labels:
[1] = tested on: delayed hypersensitivity induced by picryl chloride; assay: Reinforcement Test of Delayed Hypersensitivity (Test Example 1); assay type: in vivo, ICR male mice; settings: ICR mice, oral 50 mg per Kg simultaneously with sensitization; 24 hours after challenging; average of both pinnae of eight mice; * P<0.05, ** P<0.01 vs control
Text: The delayed hypersensitivity induced on a mouse when picryl chloride(2-chloro-1,3,5-trinitrobenzene) is coated on the skin of the mouse is known as a typical cellular immunity.
This test system was used for the reinforcement tests of the delayed hypersensitivity.
Groups of eight ICR male mice, each having a body weight of about 30 g or so, were used for the test.
Sensitization was effected by coating a 3% solution of picryl chloride in a 4/1 mixture of olive oil and acetone on the shaved abdomen of each of the mice.
Simultaneously with the sensitization, a solution or suspension of a compound of the present invention dissolved or suspended in a 0.2% solution of carboxymethylcellulose in a physiological saline was orally administered to the mouse at a dose of 50 mg per Kg of its body weight. To each mouse of a control group, was similarly administered a 0.2% carboxymethylcellulose solution in a physiological saline.
The delayed hypersensitivity was induced 7 days after the sensitization by pinching each of the pinnae of each mouse with a pair of forceps whose tip portions were wrapped with a felt impregnated with a 1% solution of picryl chloride in olive oil and coating the pinnae with the solution. The thickness of each pinna was measured before the challenging and 24 hours after the challenging and the ratio of increase of the thickness (average value of both of the pinnae of the eight mice) is shown in Table 1.
For comparison, a similar test was carried out using Levamisole hydrochloride. The results thereof are also shown.
F.t tests were carried out on the thus-obtained test results.

[2] = tested on: adjuvant arthritis caused by the injection of a Mycobacterium tuberculosis adjuvant; assay: Adjuvant Arthritis Test (Test Example 2); assay type: in vivo, SD male rats; settings: SD rats, subcutaneous 5 mg per Kg, 9 times; average value from 16th to 20th days; left hind leg; * P<0.05, ** P<0.01 vs control
Text: The adjuvant arthritis in rats caused by the injection of a Mycobacterium tuberculosis adjuvant is often utilized for a model test of chronic rheumatoid arthritis in human.
The mechanism of manifestation of this disease has not completely been elucidated, but it is known that cellular immunity plays an important role. The immuno-modulating activity of the compounds of the present invention was investigated in accordance with this known adjuvant arthritis test.
8-Week-old SD male rats were used for the test. In 0.1 ml of fluid paraffin, 0.4 mg of dry dead cells of Mycobacterium tuberculosis were suspended, and the suspension was injected under the heel skin of the right hind leg of each rat. Each of the compounds of the present invention was subcutaneously administered 9 times in total before and after the injection of the adjuvant. Each of the compounds of the present invention was dissolved or suspended in a 0.2% solution of carboxymethylcellulose in physiological saline and administered to each rat at a dose of 5 mg per Kg of the body weight. The swollen volume of the left hind leg was measured during the period of from the day of injection to the day of completion of the test, and the swelling ratio was calculated. For comparison, a similar test was conducted using Levamisole hydrochloride. F.t tests were carried out on the test results obtained.

[3] = tested on: ddY male mice; assay: Acute Toxicity Test through Oral Administration (Test Example 3); assay type: in vivo; settings: observed for 7 days
Text: To each of a group of five ddY male mice, was orally administered a medicine dissolved or suspended in physiological saline.

Row | SMILES | Ratio of Increase of Pinna Thickness [1] | Swell suppression ratio to control group [2] | estimated LD50 [3]
1 | c1ccc([C@H]2CN3CCSC3=N2)cc1 [Levamisole.HCl, Levamisole hydrochloride, reference compound] | 31.2% | 19.8% | 200 to 300 mg/kg
2 | O=C(Nc1nc(-c2ccccc2)cs1)Nc1nc(-c2ccccc2)cs1 [drawing 8] | 37.5% | – | –
3 | Cc1ccc(-c2csc(NC(=O)Nc3nc(-c4ccc(C)cc4)cs3)n2)cc1 [drawing 9] | 36.1% | – | –
4 | COc1ccc(-c2csc(NC(=O)Nc3nc(-c4ccc(OC)cc4)cs3)n2)cc1 [drawing 10] | 31.7% | – | –
5 | CSc1sc(NC(=O)Nc2nc(-c3ccccc3)c(SC)s2)nc1-c1ccccc1 [drawing 11] | 29.0% | – | –
6 | Cc1cc(NC(=O)Nc2nc(-c3ccccc3)cs2)no1 [drawing 12] | 37.8% | – | –
7 | O=C(Nc1ccccn1)Nc1nc(-c2ccccc2)cs1 [drawing 13] | 25.4% | – | –
8 | O=C(Nc1nc(-c2ccccc2)cs1)Nc1nc(-c2ccccc2)cs1 [drawing 14] | – | 35.7% | –
9 | Cc1ccc(-c2csc(NC(=O)Nc3nc(-c4ccc(C)cc4)cs3)n2)cc1 [drawing 15] | – | 29.3% | –
10 | COc1ccc(-c2csc(NC(=O)Nc3nc(-c4ccc(OC)cc4)cs3)n2)cc1 [drawing 16] | – | 37.5% | –
11 | CSc1sc(NC(=O)Nc2nc(-c3ccccc3)c(SC)s2)nc1-c1ccccc1 [drawing 17] | – | 28.8% | –
12 | Cc1cc(NC(=O)Nc2nc(-c3ccccc3)cs2)no1 [drawing 18] | – | 26.6% | –
13 | O=C(Nc1ccccn1)Nc1nc(-c2ccccc2)cs1 [drawing 19] | – | 34.6% | –
